Read-outs that look alike come from different tables or passages of the source.
Key:
[1] = Human microsome stability assay; details: 1 μM compound, 0.5 mg/mL liver microsomal protein, 1 mM NADPH, 37° C., 0-30 minutes
[2] = GSH adduct screening assay; assay type: in vitro ADME, human; design: key: GSH adducts found (Flag); or not (No Flag); details: 20 μM compound, HLM 1 mg/ml, 5 mM GSH, 1 mM NADPH, 60 minutes at 37° C.
[3] = Human hepatocyte stability assay; assay type: in vitro ADME; details: 1 μM compound, 1*10^6 cells/mL, 2-120 min
[4] = microsomes, pH 7.4
[5] = biological target: T1, recombinant human Myt1 (full length PKMYT1) (Homo sapiens, UniProt Q99640); test: ADP-Glo assay (Myt1 kinase activity)
T1 sequence (Q99640 1-499): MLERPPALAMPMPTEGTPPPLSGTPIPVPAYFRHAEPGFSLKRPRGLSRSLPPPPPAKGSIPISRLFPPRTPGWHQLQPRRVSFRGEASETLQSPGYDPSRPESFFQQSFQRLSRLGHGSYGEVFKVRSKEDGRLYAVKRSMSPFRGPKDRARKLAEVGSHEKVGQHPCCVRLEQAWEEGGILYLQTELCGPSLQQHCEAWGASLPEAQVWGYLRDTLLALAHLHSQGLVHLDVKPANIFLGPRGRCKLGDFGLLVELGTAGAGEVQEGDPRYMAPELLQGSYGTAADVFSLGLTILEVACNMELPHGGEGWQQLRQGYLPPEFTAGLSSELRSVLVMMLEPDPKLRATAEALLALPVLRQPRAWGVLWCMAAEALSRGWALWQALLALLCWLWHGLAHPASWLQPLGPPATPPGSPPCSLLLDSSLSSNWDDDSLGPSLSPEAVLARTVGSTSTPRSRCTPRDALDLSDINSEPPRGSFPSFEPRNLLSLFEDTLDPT

| Clearance of Human microsome [1] [mL/min/kg] | GSH adduct [2] | Clearance of Human hepatocyte (μL/min/10^6 cell) [3] [μL/min/10^6 cell] | IC50 [5] [nM] | Structure (SMILES) | Clearance of Human microsome [4] [mL/min/kg] |
| --- | --- | --- | --- | --- | --- |
| 8.88 | No Flag | – | – | Cc1cc2[nH]c(=O)c(N)c(-c3ccc(F)c4[nH]ncc34)c2nc1Cl [Example 003, 3-Amino-6-chloro-4-(7-fluoro-1H-indazol-4-yl)-7-methyl-1H-1,5-naphthyridin-2-one] | – |
| 7.03 | No Flag | 2.6 | – | Nc1c(-c2ccc(F)c3[nH]ncc23)c2ncc(C3CC3)cc2[nH]c1=O [Example 015, 3-Amino-7-cyclopropyl-4-(7-fluoro-1H-indazol-4-yl)-1H-1,5-naphthyridin-2-one] | – |
| – | – | – | – | Cc1cc2[nH]c(=O)c(N)c(-c3ccc(F)c4[nH]ncc34)c2nc1N1CC2(COC2)C1 [Example 026, 3-Amino-4-(7-fluoro-1H-indazol-4-yl)-7-methyl-6-(2-oxa-6-azaspiro[3.3]heptan-6-yl)-1H-1,5-naphthyridin-2-one] | 8.87 |
| 6.15 | – | <1 | < 10 | Cc1c(Cl)cnc2c(-c3ccc(F)c4[nH]ncc34)c(N)c(=O)[nH]c12 [Example 099, 3-Amino-7-chloro-4-(7-fluoro-1H-indazol-4-yl)-8-methyl-1H-1,5-naphthyridin-2-one] | – |
| – | – | <1 | – | [2H]C([2H])([2H])c1cnc2c(-c3ccc(F)c4[nH]ncc34)c(N)c(=O)[nH]c2c1C [Example 101, 3-Amino-4-(7-fluoro-1H-indazol-4-yl)-8-methyl-7-(trideuteriomethyl)-1H-1,5-naphthyridin-2-one] | – |
| – | No Flag | – | < 10 | C#Cc1cnc2c(-c3ccc(F)c4[nH]ncc34)c(N)c(=O)[nH]c2c1C [Example 124, 3-Amino-7-ethynyl-4-(7-fluoro-1H-indazol-4-yl)-8-methyl-1H-1,5-naphthyridin-2-one] | – |
| – | – | 1.7 | < 10 | Cc1c(CC(F)(F)F)cnc2c(-c3ccc(F)c4[nH]ncc34)c(N)c(=O)[nH]c12 [Example 133, 3-Amino-4-(7-fluoro-1H-indazol-4-yl)-8-methyl-7-(2,2,2-trifluoroethyl)-1H-1,5-naphthyridin-2-one] | – |
| 6.15 | – | 1.4 | 17.3 | COc1cnc2c(-c3ccc(F)c4[nH]ncc34)c(N)c(=O)[nH]c2c1C [Example 136, 3-Amino-4-(7-fluoro-1H-indazol-4-yl)-7-methoxy-8-methyl-1H-1,5-naphthyridin-2-one] | – |
| 6.15 | – | 1.2 | < 10 | Cc1cnc2c(-c3ccc(Cl)c4[nH]ncc34)c(N)c(=O)[nH]c2c1C [Example 146, 3-Amino-4-(7-chloro-1H-indazol-4-yl)-7,8-dimethyl-1H-1,5-naphthyridin-2-one] | – |
| – | No Flag | – | 11.5 | Cc1nc(Cl)c2c(-c3ccc(F)c4[nH]ncc34)c(N)c(=O)[nH]c2c1C [Example 160, 3-Amino-5-chloro-4-(7-fluoro-1H-indazol-4-yl)-7,8-dimethyl-1H-1,6-naphthyridin-2-one] | – |
| – | – | <1 | < 10 | Nc1c(-c2ccc(F)c3[nH]ncc23)c2c(Cl)nc(C3CC3)cc2[nH]c1=O [Example 163, 3-Amino-5-chloro-7-cyclopropyl-4-(7-fluoro-1H-indazol-4-yl)-1H-1,6-naphthyridin-2-one] | – |
| 6.80 | – | <1 | 14.5 | N#Cc1nc(C2CC2)cc2[nH]c(=O)c(N)c(-c3ccc(F)c4[nH]ncc34)c12 [Example 167, 3-Amino-7-cyclopropyl-4-(7-fluoro-1H-indazol-4-yl)-2-oxo-1H-1,6-naphthyridine-5-carbonitrile] | – |
| 6.15 | – | <1 | 15.2 | COc1cnc(C)c2[nH]c(=O)c(N)c(-c3ccc(F)c4[nH]ncc34)c12 [Example 173, 3-Amino-4-(7-fluoro-1H-indazol-4-yl)-5-methoxy-8-methyl-1H-1,7-naphthyridin-2-one] | – |
| 6.20 | – | <1 | 13.4 | Cc1ncc(OCC(F)(F)F)c2c(-c3ccc(F)c4[nH]ncc34)c(N)c(=O)[nH]c12 [Example 183, 3-Amino-4-(7-fluoro-1H-indazol-4-yl)-8-methyl-5-(2,2,2-trifuoroethoxy)-1H-1,7-naphthyridin-2-one] | – |
| 6.20 | – | 1.3 | < 10 | CCOc1cnc(C)c2[nH]c(=O)c(N)c(-c3ccc(F)c4[nH]ncc34)c12 [Example 184, 3-Amino-5-ethoxy-4-(7-fluoro-1H-indazol-4-yl)-8-methyl-1H-1,7-naphthyridin-2-one] | – |
